Data reported in patent US20050209310A1, “Methods for modulating tumor growth and metastasis” (priority 2000, published 2005).

Legend:
[1] = test system: M5076 murine fibrosarcoma; test: In vivo antitumor testing, sc M5076 murine fibrosarcoma; conditions: for complete response (disappearance of tumors): CA1P + carboplatin vs either agent alone (FIG. 11); for minimum effective dose required for synergistic enhancement: in combination with carboplatin (FIG. 10)
Procedure: (§1) The following protocols are provided to facilitate the practice of Examples I and II. • Drug administration: For administration to rodents, CA4P was dissolved in normal saline (0.9% NaCl). Paclitaxel was dissolved in a 50/50 mixture of ethanol and Cremophor® and stored at 4° C.; final dilution of paclitaxel was obtained immediately before drug administration with NaCl 0.9%. Fresh preparation of paclitaxel was employed to avoid precipitation. CPT-11 was dissolved in normal saline. • The volume of all compounds injected was 0.01 ml/g of mice, and 0.005 ml/g of rats. • In Vivo Antitumor Testing: The following tumor models were used: A2780 human ovarian carcinoma, the murine fibrosarcoma M5076 and M5076/ddp (resistant to cisplatin and carboplatin).
(§2) The human tumors were maintained in Balb/c nu/nu nude mice. M5076 and M5076ddp were maintained in C57BL/6 mice. Tumors were propagated as subcutaneous transplants in the appropriate mouse strain using tumor fragments obtained from donor mice.
(§3) The following tumors were passaged in the indicated host strain of mouse: murine M5076 fibrosarcoma (M5076) in C57B1/6 mice; human A2780 ovarian carcinomas in nude mice. Tumor passage occurred biweekly for murine tumors and approximately every two to three weeks for the human tumor line. With regard to efficacy testing, M5076 and M507 6ddp tumors were implanted in (C57B1/6×DBA/2)F1 hybrid mice, and human tumors were implanted in nude mice. All tumor implants for efficacy testing were subcutaneous (sc).
The required numbers of animals needed to detect a meaningful response were pooled at the start of the experiment and each was given a subcutaneous implant of a tumor fragment (˜50 mg) with a 13-gauge trocar. For treatment of early-stage tumors, the animals were again pooled before distribution to the various treatment and control groups. For treatment of animals with advanced-stage disease, tumors were allowed to grow to the predetermined size window (tumors outside the range were excluded) and animals were evenly distributed to various treatment and control groups. Treatment of each animal was based on individual body weight. Treated animals were checked daily for treatment related toxicity/mortality. Each group of animals was weighed before the initiation of treatment (Wt1) and then again following the last treatment dose (Wt2). The difference in body weight (Wt2−Wt1) provides a measure of treatment-related toxicity.
Tumor response was determined by measurement of tumors with a caliper twice a week, until the tumors reach a predetermined “target” size of 1 gm. Tumor weights (mg) were estimated from the formula: Tumor weight=(length×width2)÷2 Antitumor activity was evaluated at the maximum tolerated dose (MTD) which is defined as the dose level immediately below which excessive toxicity (i.e. more than one death) occurred. […] When death occurs, the day of death was recorded.
Tumor response end-point was expressed in terms of tumor growth delay (T−C value), defined as the difference in time (days) required for the treated tumors (T) to reach a predetermined target size compared to those of the control group (C).
To estimate tumor cell kill, the tumor volume doubling time was first calculated with the formula: TVDT=Median time (days) for control tumors to reach target size−Median time (days) for control tumors to reach half the target size and, Log cell kill=T−C÷(3.32×TVDT).
Statistical evaluations of data were performed using Gehan's generalized Wilcoxon test.

[2] = test system: A2780 human ovarian carcinoma; test: In vivo antitumor testing, A2780 human ovarian carcinoma xenograft
Procedure: as §1, §2, §3
The required numbers of animals needed to detect a meaningful response were pooled at the start of the experiment and each was given a subcutaneous implant of a tumor fragment (˜50 mg) with a 13-gauge trocar. For treatment of early-stage tumors, the animals were again pooled before distribution to the various treatment and control groups. For treatment of animals with advanced-stage disease, tumors were allowed to grow to the predetermined size window (tumors outside the range were excluded) and animals were evenly distributed to various treatment and control groups. […]
Tumor response was determined by measurement of tumors with a caliper twice a week, until the tumors reach a predetermined “target” size of 1 gm. Tumor weights (mg) were estimated from the formula: Tumor weight=(length×width2)÷2 Antitumor activity was evaluated at the maximum tolerated dose (MTD) which is defined as the dose level immediately below which excessive toxicity (i.e. more than one death) occurred. […] When death occurs, the day of death was recorded. […]
To estimate tumor cell kill, the tumor volume doubling time was first calculated with the formula: TVDT=Median time (days) for control tumors to reach target size−Median time (days) for control tumors to reach half the target size and, Log cell kill=T−C÷(3.32×TVDT). […]

[3] = test system: ES2 human clear cell ovarian carcinoma; test: Multi-drug resistant ES2 ovarian carcinoma model, tumor size and survival; type: in vivo, Fox Chase CB-17 SCID mice
Procedure: The multi-drug resistant ES2 human clear cell ovarian carcinoma was established by subcutaneous injection of cultured ES2 cells in Fox Chase CB-17 SCID mice. In one experiment, tumor-bearing mice were administered CA4P at a dose of 100 mg/kg (Group II), saline carrier only (Group I), an intraperitoneal (i.p.) injection of paclitaxel at a dose of 9 mg/kg, followed 30 minutes later by an infusion of carboplatin at a dose of 30 mg/kg […], or CA4P (100 mg/kg) followed 24 hours later by paclitaxel and carboplatin as in Group II (Group IV). Treatment with anticancer agents was performed once a week for 4 weeks (i.e. on Day 11, 19, 26, and 33). Tumors in each treatment group (n=2) were measured every 4 days by width and length. Tumor size (i.e. volume) was calculated according to the following formula: Length×Width^2×0.4.
In a second experiment, tumor-bearing mice were administered CA1P and/or carboplatin and paclitaxel in the same treatment regime as the first experiment.

[4] = test system: N87 human gastric carcinoma; test: Single agent antitumor activity, N87 xenograft model; conditions: in vivo
[5] = test system: N87 gastric cancer tumor xenografts; test: Tumor perfusion studies of CA1P, N87 xenografts
[6] = test system: A2780 human ovarian tumor xenografts; test: Tumor perfusion studies of CA1P, A2780 xenografts
[7] = test system: M5076DDP murine fibrosarcoma; test: In vivo antitumor testing, sc M5076DDP murine fibrosarcoma (resistant to cisplatin and carboplatin); set-up: species or system mice
Procedure: Fresh preparation of paclitaxel was employed to avoid precipitation.
M5076 and M5076ddp were maintained in C57BL/6 mice.
All tumor implants for efficacy testing were subcutaneous (sc).
The MTD was frequently equivalent to OD. When death occurs, the day of death was recorded.
M507 6DDP is a murine fibrosarcoma that has developed resistance to cisplatin and cross-resistance to carboplatin. The in vivo antitumor activity of CA4P or CA1P in combination with each of these platinum coordination compounds and CPT-11 were evaluated in M5076DDP tumor bearing mice.

[8] = test system: sc A2780 human ovarian carcinoma; test: Tumor perfusion, Evans blue dye uptake assay, mice; type: in vivo; conditions: iv, optimal dose, Evans blue injected an hour later (FIG. 5A)
Procedure: (§4) The effects of CA4P disodium salt on tumor perfusion were also studied using the Evans blue dye uptake assay. Mice or rats bearing sc A2780 human ovarian carcinoma were administered an iv dose of CA4P disodium salt. An hour later, Evans blue was injected iv. The amount of Evans blue accumulated in the tumor is proportional to the blood flow through the tumor.

[9] = test system: sc A2780 human ovarian carcinoma; test: Tumor perfusion, Evans blue dye uptake assay, rats; type: in vivo; conditions: iv, optimal dose, Evans blue injected an hour later (FIG. 5B)
Procedure: as §4

[10] = Hematological analysis of whole blood, Phase I trial of CA4P; type: in vivo, human
Procedure: Hematological analysis was performed on whole blood obtained from patients participating in a Phase I trial of CA4P (see Rustin et al., J. Clin. Oncol. (2003)). All patients had histologically confirmed tumors and were either not amenable to standard curative therapy or were refractory to conventional therapy. Blood work was obtained from each patient 1 minute prior to treatment, every 15 minutes for the first hour post-treatment, and at 1.5, 2, 4, 8, 12 and 24 hours following infusion with the first dose of CA4P (52-114 mg/m^2). Art-recognized hematology methods were used in the analysis.
All full or differential blood cell counts were performed using a hematology flow cytometer (Technicon H2, Bayer Inc.). Total white blood cell (“WBC” or leukocyte) and red blood cell (“RBC” or erythrocyte) counts were established using direct laser flow cytometry. A differential count for leukocyte cells of myeloid origin (e.g. eosinophils, neutrophils, monocytes) was obtained by fluorescent flow cytometry of cells stained for myeloperoxidase. Unstained cells were assumed to be lymphocytes and basophils. Lymphocyte counts were obtained by subtracting those cells that stained […] for a second, basophil-specific cell stain. Mean Corpuscular Volume (MCV) and Mean Corpuscular Haemoglobin (MCH) were also obtained by laser flow cytometry. The haematocrit (Hct) was calculated from the RBC count and the MCV. The coagulant status of each blood sample was determined by measuring fibrinogen content, prothrombin time, and kaolin partial thromboplastin time (when kaolin is used instead of micronised silica as the activator).
Cell counts were averaged from nineteen patients treated with a range of CA4P doses (52 to 114 mg/m^2). The results of the complete hematological analysis obtained at 4 and 24 hours post-treatment are presented in FIG. 18 as a percentage of the corresponding pretreatment value. […] The increase in white blood cells occurred despite a significant decrease in lymphocyte count (i.e. T and B-lymphocytes). […] The more than 2-fold increase in neutrophils and more than 20% decrease in lymphocytes was transient however, as white blood cell counts returned to normal levels within 24 hours of treatment.

[11] = 4 hours following treatment, CA4P 52 to 114 mg/m^2, nineteen patients

Question: What does the source list for `COc1cc(/C=C\c2ccc(OC)c(OP(=O)(O)O)c2OP(=O)(O)O)cc(OC)c1OC` [CA1P, combretastatin A-1 diphosphate]?
Answer: complete response (disappearance of tumors) [1]: not observed; minimum effective dose required for synergistic enhancement [1]: 4 to 8 mg/kg; log cell kill (LCK) ([2]; CA1P at MTD 9 mg/kg, ip, q1dx8): 2.1 LCK; maximum tolerated dose (MTD) ([2]; CA1P, ip, q1dx8): 9 mg/kg; control of tumor growth ([3]; second experiment: CA1P and/or carboplatin and paclitaxel, same regime (FIG. 15)): considerable anti-tumor growth delay; single agent activity [4]: improved single agent activity; inhibition of tumor blood flow [5]: significantly inhibited tumor blood flow; inhibition of tumor blood flow ([6]; A2780 xenografts in mice): significantly inhibited tumor blood flow; potency of blood flow inhibition relative to CA4P ([6]; daily single agent for ten days, human tumor xenografts in nude mice (N87, A2780; FIG. 9)): 5-10 times

Question: With `COc1ccc(/C=C\c2cc(OC)c(OC)c(OC)c2)cc1OP(=O)(O)O` [CA4P, combretastatin A-4 phosphate] as the compound, how does the “log cell kill (LCK)” value ([7]; CA4P single agent, optimal dose 150 mg/kg/inj, iv, everyday x10 (Monday thru Friday), advanced (300 mg) tumors) read?
Answer: Its value is 1.1 LCK.

Question: And the “CA4P dose sufficient to enhance the antitumor activity of carboplatin” value ([7]; iv, q4dx3, doses without single agent activity, carboplatin at a range of dose levels (FIG. 7))?
Answer: The value was 12.5-25 mg/m^2.

Question: And the “single agent antitumor activity” value ([1]; CA4P administered Q4Dx3, separate experiment)?
Answer: Its value is “no activity”.

Question: And the “maximum tolerated dose (MTD) as a single agent” value ([1]; CA4P single agent)?
Answer: The value was greater than 250 mg/kg/inj.

Question: And the “optimal CA4P dose required for therapeutic synergy” value ([1]; in combination with carboplatin (FIG. 3B))?
Answer: Its value is less than 90 mg/kg/inj.

Question: And the “minimum effective dose required for synergistic enhancement” value [1]?
Answer: Its value is 25 to 50 mg/kg.

Question: What about the “log cell kill (LCK)” value ([2]; CA4P at 150 mg/kg, ip) of the same compound?
Answer: The value was 1.1 LCK.

Question: And the “reduction of tumor blood flow” value [8]?
Answer: The value was 67%.

Question: And the “reduction of tumor blood flow” value [9]?
Answer: The value was 87%.

Question: What about the “animals still alive at the conclusion of the experiment” value ([3]; first experiment (FIG. 14)) of the same compound?
Answer: The value was 30%.

Question: And the “control of tumor growth” value ([3]; first experiment: CA4P 100 mg/kg, paclitaxel 9 mg/kg, carboplatin 30 mg/kg, once a week for 4 weeks (FIG. 13))?
Answer: Its value is “not significantly more effective than paclitaxel and carboplatin”.

Question: What about the decrease in lymphocytes [10, 11] of the same compound?
Answer: The decrease in lymphocytes was “more than 20%”.

Question: What about the increase in neutrophils [10, 11] of the same compound?
Answer: Its increase in neutrophils is “more than 2 fold”.

Question: And the “total white blood cell count” value ([10]; 4 hours following treatment, CA4P 52 to 114 mg/m^2, nineteen patients, vs pretreatment)?
Answer: Its value is “highly significant increase”.

Question: What about the “time for white blood cell counts to return to normal levels” value ([10]; after treatment with CA4P) of the same compound?
Answer: Its value is no more than 24 h.

Question: With `CCc1c2c(nc3ccc(OC(=O)N4CCC(N5CCCCC5)CC4)cc13)-c1cc3c(c(=O)n1C2)COC(=O)[C@]3(O)CC` [CPT-11, CPT-11 (irinotecan), reference compound] as the compound, how does the “log cell kill (LCK)” value ([2]; CPT-11 at its MTD) read?
Answer: Its value is 3.3 LCK.

Question: What does the source list for `N.N.O=C([O-])C1(C(=O)[O-])CCC1.[Pt+2]` [carboplatin, Carboplatin, reference compound]?
Answer: complete response (disappearance of tumors) [1]: not observed; log cell kill (LCK) ([1]; carboplatin alone at MTD 90 mg/kg/inj, iv, Q4Dx3, large sc tumors (300 mg)): 1.4 LCK; tumor regression / shrinkage ([1]; carboplatin alone at MTD vs best CA4P + carboplatin combination (FIG. 3A)): no tumor regression; maximum tolerated dose (MTD) ([1]; carboplatin, iv, Q4Dx3): 90 mg/kg/inj

Question: Which “shrinkage of tumors following treatment” value ([7]; combination vs single agent cisplatin (FIG. 1)) does the source give for `N.N.[Cl][Pt][Cl]` [cisplatin] here?
Answer: Its value is “did not”.

Question: What about the “maximum tolerated dose (MTD)” value ([7]; injected every 4 days for 3 doses (Q4Dx3)) of the same compound?
Answer: Its value is 7.5 mg/kg.

Question: What about the “log cell kill (LCK)” value ([7]; single agent cisplatin at MTD 7.5 mg/kg, iv, Q4Dx3) of the same compound?
Answer: Its value is 0.8 LCK.
